The values that follow are results of earlier work, collected in patent US20080254114A1, “Controlled Release Compositions Comprising Heterocyclic Amide Derivative Nanoparticles” (Elan Corporation plc, priority 2005, published 2008).

Data set [1] relates to airway responses to antigen. The conditions noted are these: sensitized sheep, inhalational challenge.
The subject of data set [2] is bronchoconstriction.
Data set [3] has as its system leukotrienes (LTC4, LTD4 and LTE4). The conditions noted are these: conducting airway smooth muscle, in vitro.
For data set [4] the following is noted: administration with food; high fat meal and high protein meal, two separate studies.
Data set [5] concerns LTD4. The conditions noted are these: inhaled LTD4.

For `COc1cc(C(=O)NS(=O)(=O)c2ccccc2C)ccc1Cc1cn(C)c2ccc(NC(=O)OC3CCCC3)cc12` [Zafirlukast, 4-(5-cyclopentyloxy-carbonylamino-1-methyl-indol-3-ylmethyl)-3-methoxy-N-o-tolylsulfonylbenzamide], in data set [1], the “airway responses to antigen (early- and late-phase response, nonspecific hyperresponsiveness)” value was “suppressed”. For the same molecule, the “increase in bronchial hyperresponsiveness to inhaled histamine” value in data set [2] (following inhaled allergen challenge) is on record as “attenuated”. Further, the “early- and late-phase reaction caused by inhalation of antigens (grass, cat dander, ragweed, mixed antigens)” value in data set [2] (patients with asthma, pretreatment with single doses) was “attenuated”. For the same molecule, the “bronchoconstriction caused by sulfur dioxide and cold air” value in data set [2] (patients with asthma, pretreatment with single oral doses) is “inhibited”. For the same molecule, the “contractile activity of LTC4, LTD4 and LTE4” value in data set [3] is reported as “antagonized”. Moreover, the solubility in acetone entry (acetone) is given as “freely soluble”. Under “dimethyl-sulfoxide”, the solubility in dimethyl-sulfoxide entry is “freely soluble”. In addition, the solubility in methanol entry (methanol) was “slightly soluble”. Moreover, the solubility in tetrahydrofuran result (tetrahydrofuran) was “freely soluble”. Also, the solubility in water entry (water) is listed as “practically insoluble”. Besides, the “reduction of mean bioavailability by food” value in data set [4] is “approximately 40%”. In data set [5], the “LTD4-induced influx of eosinophils into animal lungs” value was “inhibited”.
